Test: Dissolution Test (Paddle Method), Method 2 of the Japanese Pharmacopoeia 14th Revised Edition
Type: physicochemical
Settings: dissolution rate of olmesartan medoxomil, paddle 50 revolutions per minute, 900 mL JP-2, absorptiometry, average of two tablets
Experimental: Dissolution properties were measured for the drug products as obtained in the Examples and Comparative Examples by the following method, and the results are shown in the Table.
Testing was carried out in accordance with Method 2 of the Dissolution Test (Paddle Method) described in the 14th Revised Edition of the Japanese Pharmacopoeia, at the paddle revolution speed of 50 revolutions per minute and using 900 mL of Japanese Pharmacopoeia Solution 2 (JP-2) for the test solution. The test solution was sampled at 30 minutes and 60 minutes after the start of testing, and the dissolution rate of olmesartan medoxomil was measured by absorptiometry. [Toyama Sangyo Co., Ltd.: DISSOLUTION TESTER NTR-6000, Shimadzu Corporation: SPECTROPHOTOMETER UV-1600] Tests were carried out for two tablets, and average values are shown.

For `CCCc1nc(C(C)(C)O)c(C(=O)OCc2oc(=O)oc2C)n1Cc1ccc(-c2ccccc2-c2nnn[nH]2)cc1` [Comparative Example C-3, Olmesartan medoxomil], the “Dissolution rate (%) After 30 minutes” value (sampled at 30 minutes) was 60.0% and the “Dissolution rate (%) After 60 minutes” value (sampled at 60 minutes) was 68.4%.
